Where “and” joins values, the source holds several entries; their conditions need not be identical. Identical values can stand only once.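 Where inhibition never reached the appropriate level, the endpoint shown equals the highest concentration tested. Otherwise, values were interpolated linearly from a five-concentration, 48-hour dose response in 96-well plates. Abbreviation: GI50, concentration required for 50% inhibition of growth. TGI: total growth inhibition.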
Legend:
Assay in all cases: NCI tumour cell line growth inhibition, 48 h
EKVX NSCLC = tested on: EKVX NSCLC
UACC-257 melanoma = tested on: UACC-257 melanoma
RXF 393 renal = tested on: RXF 393 renal
SK-MEL-28 melanoma = tested on: SK-MEL-28 melanoma
MDA-MB-231 breast = tested on: MDA-MB-231 breast
HCT-15 colon = tested on: HCT-15 colon
SNB-19 CNS = tested on: SNB-19 CNS
SF-539 CNS = tested on: SF-539 CNS
CCRF-CEM leukemia = tested on: CCRF-CEM leukemia
DU-145 prostate = tested on: DU-145 prostate

SMILES	TGI (EKVX NSCLC) [µM]	TGI (UACC-257 melanoma) [µM]	TGI (RXF 393 renal)	TGI (SK-MEL-28 melanoma) [µM]	TGI (MDA-MB-231 breast) [µM]	TGI (HCT-15 colon) [µM]	TGI (SNB-19 CNS) [µM]	TGI (SF-539 CNS) [µM]	TGI (CCRF-CEM leukemia) [µM]	GI50 (EKVX NSCLC) [µM]	GI50 (UACC-257 melanoma) [µM]	GI50 (RXF 393 renal) [µM]	GI50 (MDA-MB-231 breast) [µM]	GI50 (HCT-15 colon) [µM]	GI50 (SNB-19 CNS) [µM]	GI50 (SF-539 CNS) [µM]	GI50 (CCRF-CEM leukemia) [µM]	GI50 (SK-MEL-28 melanoma) [µM]	GI50 (DU-145 prostate) [µM]	TGI (DU-145 prostate) [µM]
COC(=O)/C(=N\NC(=S)NN)C(C(=O)OC)C(=O)C(=O)Nc1cccc(C(F)(F)F)c1 (centres undefined)	> 100	> 100	> 100 µM	> 100	> 100	> 100	> 100	> 100	> 100											
Oc1ccc(-c2cn3cc(Cl)sc3n2)cc1	> 100	> 100	> 100 µM		> 100	> 100	> 100	> 100	39.8	47.6	46.2	> 100	> 100	> 100	58.8	> 100	12.1			
CN(C)C1=NC2=S(SC(Nc3ccccc3)=N2)S1 (centres undefined)	38.5	70.8	> 100 µM	56.2		> 100	97.9	60.6	> 100											
Cc1c(C(=O)/C=C/c2c(Cl)cccc2Cl)c(=O)n(-c2ccccc2)n1C	> 100	> 100	20.4 µM	> 100		> 100	> 100		56.6											
N#C/C(=C1C=C/C(=N\O)C(Cl)=C\1)c1ccccc1		28.2	18.2 µM	21.8	6.7	11	> 100	5	2.37		4.49	4.72	2.26	2.34	22.1	1.34	0.37	6.77	3.32	9.47
O=C(O)c1cccc2cccc(C(=O)O)c12.[Hg]	> 100	30.8	32.3 µM	29.3		29.8	29.7		29.2	> 100	16.7	16.8		14.4	15.9		6.92	14.9		
COC1OC(COS(=O)(=O)c2ccc(C)cc2)C(O)C(OS(=O)(=O)c2ccc(C)cc2)C1OS(=O)(=O)c1ccc(C)cc1 (centres undefined)	> 100	> 100	> 100 µM	> 100		> 100	> 100	> 100	> 100											
CCOC(=O)NC(=O)c1cn(CCCOC(=O)NCCCCCCNC(=O)OCCCn2cc(C(=O)NC(=O)OCC)c(=O)[nH]c2=O)c(=O)[nH]c1=O	> 100	37		88.9		65.1	77.6	44.5	> 100											
NC(=O)CCC(NC(=O)Cc1ccccc1)C(=O)O (centres undefined) (tested in a mixture with another compound)	> 8130		2030 µM and > 8130 µM	> 8130		> 2470	> 8130	> 8130	> 8130											
CC1=NC(C(C)C)C(=O)O1 (centres undefined)	> 100	> 100		> 100		> 100	> 100	> 100	> 100											
CC(=O)OC1CC2C(C)(C)C(=O)C=C[C@]2(C)C2CCC3(C)C(c4ccoc4)[C@@H](O)[C@H]4O[C@]43[C@]12C (some centres undefined)	> 100	41.6	35.5 µM	40.5		31.2	59.6	34.2	54											
COc1ccc(-c2nn(-c3cccc(NC(=O)c4cccc(C(F)(F)F)c4)c3)cc2-c2ccncc2)cc1Cl		61.7	7.78 µM	36	16.1	> 100	> 100	6.01	> 100		6.67	1.46	1.77	2	5.7	1.77	1.9	3.07	4.36	> 100
COc1cc(Nc2nc3cc(C(F)(F)F)ccc3nc2-c2ccccc2)cc(OC)c1OC	> 100	> 100	63.8 µM	> 100		> 100		> 100	> 100											
CC1=CC(=O)c2c(C=O)c(O)c(O)c(C(C)C)c2C1=O			20.8 µM	> 100		> 100	> 100	58.4	60.1											
COC(=O)C1=C(CS(=O)c2ccc([N+](=O)[O-])cc2[N+](=O)[O-])ON(C)C1c1ccccc1 (centres undefined)	> 100	> 100	> 80.7 µM	> 100		> 78.9	> 87.9	56.2	37.9											
COc1ccc(NC(=O)CC(=O)N2N=C(N(CCC#N)c3cccc(C)c3)CC2c2ccccc2)cc1 (centres undefined)	> 100	> 100	> 100 µM	> 100		> 100	> 100	> 100	> 100											
COc1ccc(-c2cc(-c3cc(C)ccc3O)[nH]c(=O)n2)cc1	> 100	> 100	88.6 µM	> 100			> 100	> 100	> 100											
CCC1CC(C)=CCN1S(=O)(=O)c1ccc(C)cc1 (centres undefined)	> 100	> 100				83.7	> 100	39.8	75.7											
O=C(O)c1c[nH]c2c(OCc3ccccc3)c3ccccc3c(O)c2c1=O		24.2	45.6 µM	36.9	> 100	31.9	42.9	36.4	34.7		11.8	23.4	20.2	16.6	17.7	19.7	10	19.3	21.1	37.2
O=C(Cc1ccccc1)NC(c1ccc(Cl)cc1)c1c(O)ccc2ccccc12 (centres undefined)		10.4	8.03 µM	11.6	4.73	10.5	13.8	7.51	26.7		2.77	2.17	1.98	2.83	3.25	2.53	3.91	3.16	4.68	17
O=C1CC[C@H](c2ccc(O)c3c2C(=O)[C@@H]2O[C@@H]2C3=O)c2cccc(O)c21	28.2	9	3.27 µM	3.62			33.6	5.46	5.76	13.1	2.98	1.73			10.6	2.42	1.05	1.83		

Source: PubChem BioAssay (NCI)
